# Measurements published in patent US7612082B2, “Prostaglandin EP4 antagonists” (Allergan, Inc., priority 2004, dated 2009).
# Columns and labels:
# hDP = biological target: T1, hDP (Homo sapiens, UniProt Q13258); assay: Calcium signal (FLIPR) assay, hDP (HEK); type: cell-based; details: for Kb: antagonism of standard agonist BW245C, HEK cells coexpress chimeric Gqs5
# T1 construct: expressed in transfected cells; host or cells: HEK (by analogy HEK-293(EBNA))
# T1 sequence (Q13258 1-359): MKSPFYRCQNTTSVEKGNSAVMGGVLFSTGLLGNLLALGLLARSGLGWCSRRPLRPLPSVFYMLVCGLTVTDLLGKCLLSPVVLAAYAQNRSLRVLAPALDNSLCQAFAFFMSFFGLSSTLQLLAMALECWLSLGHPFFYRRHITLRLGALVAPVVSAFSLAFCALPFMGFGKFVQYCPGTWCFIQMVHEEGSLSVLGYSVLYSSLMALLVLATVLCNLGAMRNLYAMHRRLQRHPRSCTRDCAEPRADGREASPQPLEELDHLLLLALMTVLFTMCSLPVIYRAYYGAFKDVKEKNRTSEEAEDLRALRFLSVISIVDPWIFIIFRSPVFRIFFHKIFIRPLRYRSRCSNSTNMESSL
# Description: (§1) Cells were then washed twice with HBSS-HEPES buffer (Hanks Balanced Salt Solution without bicarbonate and phenol red, 20 mM HEPES, pH 7.4) using a Denley Cellwash plate washer (Labsystems; Franklin, Mass.). After 45-60 min of dye-loading in the dark using the calcium-sensitive dye Fluo-4 AM, at a final concentration of 2 μM, plates were washed four times with HBSS-HEPES buffer to remove excess dye and leaving 100 μl buffer in each well. Plates were then placed into a FLIPR™ instrument and were allowed to equilibrate at 37° C. Drug solution was added in a 50 μl volume to each well to give the desired final concentration. Cells were excited with an Argon laser at 488 nm, and emission was measured through a 510-570 nm bandwidth emission filter (FLIPR™, Molecular Devices, Sunnyvale, Calif.). The peak increase in fluorescence intensity was recorded for each well. […] A similar analysis was carried out for the other prostaglandin receptors, and for compound 2.
# hEP1 = biological target: T2, hEP1 (Homo sapiens, UniProt P34995); assay: Calcium signal (FLIPR) assay, hEP1 (HEK); type: cell-based
# T2 construct: expressed in transfected cells; host or cells: HEK (by analogy HEK-293(EBNA))
# T2 sequence (P34995 1-402): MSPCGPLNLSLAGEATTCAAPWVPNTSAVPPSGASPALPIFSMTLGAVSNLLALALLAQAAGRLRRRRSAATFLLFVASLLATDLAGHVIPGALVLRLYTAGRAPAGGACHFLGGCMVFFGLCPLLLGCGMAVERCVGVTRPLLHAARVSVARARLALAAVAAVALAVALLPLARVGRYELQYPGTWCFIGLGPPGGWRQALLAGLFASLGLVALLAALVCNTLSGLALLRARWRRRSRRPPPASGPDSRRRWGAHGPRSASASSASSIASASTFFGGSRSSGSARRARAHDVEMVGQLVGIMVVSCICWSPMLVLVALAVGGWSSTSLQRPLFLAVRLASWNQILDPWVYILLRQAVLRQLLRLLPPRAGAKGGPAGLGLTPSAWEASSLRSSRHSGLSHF
# Description: as §1
# hEP2 = biological target: T3, hEP2 (Homo sapiens, UniProt P43116); assay: Calcium signal (FLIPR) assay, hEP2 (HEK); type: cell-based
# T3 construct: expressed in transfected cells; host or cells: HEK (by analogy HEK-293(EBNA))
# T3 sequence (P43116 whole entry): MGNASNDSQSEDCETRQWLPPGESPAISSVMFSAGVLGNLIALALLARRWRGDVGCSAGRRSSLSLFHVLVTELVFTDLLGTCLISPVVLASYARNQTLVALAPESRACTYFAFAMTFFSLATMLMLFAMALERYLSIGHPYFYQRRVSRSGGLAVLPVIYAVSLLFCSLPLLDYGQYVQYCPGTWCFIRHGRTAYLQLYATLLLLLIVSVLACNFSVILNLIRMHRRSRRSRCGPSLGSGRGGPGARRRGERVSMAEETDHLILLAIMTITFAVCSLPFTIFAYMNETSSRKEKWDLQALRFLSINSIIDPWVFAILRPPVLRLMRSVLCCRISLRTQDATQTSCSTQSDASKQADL
# Description: (§2) Cells were then washed twice with HBSS-HEPES buffer (Hanks Balanced Salt Solution without bicarbonate and phenol red, 20 mM HEPES, pH 7.4) using a Denley Cellwash plate washer (Labsystems; Franklin, Mass.). After 45-60 min of dye-loading in the dark using the calcium-sensitive dye Fluo-4 AM, at a final concentration of 2 μM, plates were washed four times with HBSS-HEPES buffer to remove excess dye and leaving 100 μl buffer in each well. Plates were then placed into a FLIPR™ instrument and were allowed to equilibrate at 37° C. […] The peak increase in fluorescence intensity was recorded for each well.
# hEP3A = biological target: T4, hEP3A (Homo sapiens, UniProt P43115); assay: Calcium signal (FLIPR) assay, hEP3A (HEK); type: cell-based
# T4 construct: expressed in transfected cells; host or cells: HEK (by analogy HEK-293(EBNA))
# T4 sequence (P43115 1-390): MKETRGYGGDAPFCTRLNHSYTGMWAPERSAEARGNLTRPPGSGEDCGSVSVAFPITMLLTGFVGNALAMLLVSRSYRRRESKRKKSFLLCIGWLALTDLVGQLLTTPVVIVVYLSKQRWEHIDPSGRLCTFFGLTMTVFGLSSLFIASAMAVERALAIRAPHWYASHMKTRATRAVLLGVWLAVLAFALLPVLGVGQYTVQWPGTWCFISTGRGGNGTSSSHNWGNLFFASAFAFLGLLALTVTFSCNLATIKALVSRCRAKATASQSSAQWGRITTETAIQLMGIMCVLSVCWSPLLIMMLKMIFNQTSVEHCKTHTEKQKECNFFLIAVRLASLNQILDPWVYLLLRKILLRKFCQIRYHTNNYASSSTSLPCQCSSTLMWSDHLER
# Description: as §2
# human EP4 receptor = biological target: T5, human EP4 receptor (Homo sapiens, UniProt P35408); assay: Effect on Prostaglandin E2 induced calcium signal (FLIPR), hEP4 (HEK); type: cell-based
# T5 construct: expressed in transfected cells; host or cells: HEK-293(EBNA)
# T5 sequence (P35408 whole entry): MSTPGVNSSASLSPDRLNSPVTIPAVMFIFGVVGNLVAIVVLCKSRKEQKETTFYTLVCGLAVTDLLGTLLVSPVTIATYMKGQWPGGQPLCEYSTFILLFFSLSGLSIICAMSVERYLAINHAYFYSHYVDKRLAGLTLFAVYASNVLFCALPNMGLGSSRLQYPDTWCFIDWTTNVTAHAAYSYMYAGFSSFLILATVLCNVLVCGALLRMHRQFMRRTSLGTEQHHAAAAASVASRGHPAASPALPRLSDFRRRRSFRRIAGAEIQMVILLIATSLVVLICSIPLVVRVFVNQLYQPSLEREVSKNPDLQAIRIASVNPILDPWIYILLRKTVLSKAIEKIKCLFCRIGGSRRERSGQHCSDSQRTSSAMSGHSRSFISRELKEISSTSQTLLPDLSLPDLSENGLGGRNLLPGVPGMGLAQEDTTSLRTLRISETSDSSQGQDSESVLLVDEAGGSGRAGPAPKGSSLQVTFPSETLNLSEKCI
# Description: as §2
# hFP = biological target: T6, hFP (Homo sapiens, UniProt P43088); assay: Calcium signal (FLIPR) assay, hFP (HEK); type: cell-based
# T6 construct: expressed in transfected cells; host or cells: HEK (by analogy HEK-293(EBNA))
# T6 sequence (P43088 whole entry): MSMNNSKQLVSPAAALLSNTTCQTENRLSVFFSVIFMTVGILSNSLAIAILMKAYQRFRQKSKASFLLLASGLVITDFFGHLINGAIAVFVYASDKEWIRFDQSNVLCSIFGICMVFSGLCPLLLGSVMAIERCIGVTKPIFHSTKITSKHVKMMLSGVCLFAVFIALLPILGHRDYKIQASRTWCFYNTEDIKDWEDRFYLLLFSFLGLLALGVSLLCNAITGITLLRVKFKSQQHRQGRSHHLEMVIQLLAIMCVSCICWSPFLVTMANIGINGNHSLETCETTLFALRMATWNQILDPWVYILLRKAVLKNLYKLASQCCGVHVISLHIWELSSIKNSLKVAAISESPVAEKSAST
# Description: as §2
# hIP = biological target: T7, hIP (Homo sapiens, UniProt P43119); assay: Calcium signal (FLIPR) assay, hIP (HEK); type: cell-based; details: antagonism of standard agonist Carbacyclin; HEK cells
# T7 construct: expressed in transfected cells; host or cells: HEK (by analogy HEK-293(EBNA))
# T7 sequence (P43119 whole entry): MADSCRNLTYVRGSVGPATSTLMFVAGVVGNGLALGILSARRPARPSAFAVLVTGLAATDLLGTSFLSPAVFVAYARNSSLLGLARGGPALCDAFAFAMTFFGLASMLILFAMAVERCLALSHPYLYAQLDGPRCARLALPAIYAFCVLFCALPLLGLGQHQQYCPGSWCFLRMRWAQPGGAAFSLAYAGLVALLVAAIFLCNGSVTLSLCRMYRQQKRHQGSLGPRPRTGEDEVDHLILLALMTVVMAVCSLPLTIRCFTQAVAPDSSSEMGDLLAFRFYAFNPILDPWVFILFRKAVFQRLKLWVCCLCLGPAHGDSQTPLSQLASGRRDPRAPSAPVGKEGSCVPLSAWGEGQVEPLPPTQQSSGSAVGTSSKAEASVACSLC
# Description: as §2
# hTP = biological target: T8, hTP (Homo sapiens, UniProt P21731); assay: Calcium signal (FLIPR) assay, hTP (HEK); type: cell-based; details: for Kb: antagonism of standard agonist U-46619, HEK cells
# T8 construct: expressed in transfected cells; host or cells: HEK (by analogy HEK-293(EBNA))
# T8 sequence (P21731 1-343): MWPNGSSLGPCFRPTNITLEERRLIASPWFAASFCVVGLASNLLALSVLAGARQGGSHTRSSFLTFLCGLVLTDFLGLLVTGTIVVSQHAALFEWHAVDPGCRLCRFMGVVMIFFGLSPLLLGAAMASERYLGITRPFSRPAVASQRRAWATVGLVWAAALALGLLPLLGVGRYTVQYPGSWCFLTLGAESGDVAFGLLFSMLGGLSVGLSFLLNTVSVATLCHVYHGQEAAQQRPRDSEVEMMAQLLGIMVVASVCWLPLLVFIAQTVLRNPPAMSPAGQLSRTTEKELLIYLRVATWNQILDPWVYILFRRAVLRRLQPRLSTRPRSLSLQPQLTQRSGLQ
# Description: as §1
# [1] = Capsule or suppository given daily to patient suffering from cancer (Example 27); type: in vivo, human
# Description: A capsule or suppository comprising compound 1 is administered daily to a patient suffering from cancer.
# [2] = Capsule given daily to patient suffering from osteoporosis (Example 25); type: in vivo, human
# Description: A capsule comprising compound 2 is administered daily to a patient suffering from osteoporosis.
# [3] = Tablet given to person suffering from migraine headache (Example 26); type: in vivo, human; details: person suffering from a migraine headache
# Description: A tablet comprising compound 2 is administered to a person suffering from a migraine headache.
Compound,Kb (hDP),Kb (hEP1),Kb (hEP2),Kb (hEP3A),Kb (human EP4 receptor),Kb (hFP),Kb (hIP),Kb (hTP),further results
"O=C(O)CCCCCCC1C(=O)NC(=O)N1CCC(O)C1CCCCC1 (stereo not shown) [BW245C, reference compound]",,,,,,,,,"EC50 (hDP; agonist potency, calcium signal, cells coexpress chimeric Gqs5, read-out: Standard agonist hDP (HEK)): 6 nM"
CN(CC(=O)Nc1c2c(nc3c1CCC3)CCCC2)Cc1ccccc1 [Compound 1],> 10 µM,> 10 µM,> 10 µM,> 10 µM,101 nM,> 10 µM,> 10 µM,> 10 µM,Patient's condition [1]: Improvement in the patient's condition occurs
CN(CC(=O)Nc1c2c(nc3ccccc13)CCC2)Cc1ccccc1 [Compound 2],> 10 µM,> 10 µM,> 10 µM,> 10 µM,172 nM,> 10 µM,> 10 µM,> 10 µM,Bone density [2]: Increase in bone density or reduction in bone density loss occurs; Pain [3]: Significantly less pain is experienced by the patient
"CCCCC[C@H](O)/C=C/[C@@H]1[C@@H](C/C=C\CCCC(=O)O)[C@H]2CO[C@@H]1C2 [Compound U-46619, U-46619, reference compound]",,,,,,,,,"EC50 (hTP; agonist potency, calcium signal, read-out: Standard agonist hTP (HEK)): 0.3 nM"
"CCCCC[C@H](O)/C=C/[C@H]1[C@H](O)CC(=O)[C@@H]1C/C=C\CCCC(=O)O [PGE2, Prostaglandin E2, reference compound]",,,,,,,,,"EC50 (hEP1; agonist potency, calcium signal, read-out: Standard agonist hEP1 (HEK)): 0.3 nM"
